Assay results taken from paper PMC12259270, “Sensory neuron–expressed FGF13 controls nociceptive signaling in diabetic neuropathy models” (The Journal of Clinical Investigation, 2025).
Where “and” joins values, the source holds several entries; their conditions need not be identical. Identical values can stand only once. Residues, ends and D or L forms follow the SMILES beside them. *: point of attachment. NHPh = c1ccc(N*)cc1

System: C57BL/6 mice
Assay: Capsaicin-induced mechanical hypersensitivity (von Frey)
Format: in vivo, mouse
Set-up: LVF Mean / HVF Mean / MECHANICAL LVF / MECHANICAL HVF: unit not given here
Text: FGF13 is a neuronal gene ubiquitously transcribed in DRG neuronal subtypes ([43]–[46]). To investigate neuronal subtype enrichment of the FGF13 transcript, we examined a gene panel including FGF13, SCN9A, and several marker genes in mouse single-cell transcriptomic data (Supplemental Figure 10) ([43]–[46]). […] Critically, putative silent nociceptors marked by somatostatin (SST), and the nicotinic cholinergic receptor α-3 subunit (CHRNA3) contribute to development of inflammatory mechanical hyperalgesia ([47]). […] We next determined if PW164 modulation of the FGF13/Nav1.7 complex could suppress nociceptive behaviors in WT mice. We tested whether intraplantar (i.pl.) injection (5 μL) of PW164 altered hind paw withdrawal in response to low or high intensity von Frey filament (LVF or HVF, respectively) mechanical stimulation (Figure 3A). […] Next, we evaluated PW164’s effect on mechanical and thermal hindpaw sensitivity in capsaicin-induced nociceptive hypersensitivity models. […] Next, we performed in vivo target validation in WT mice that received an intrathecal (i.t.) injection in L5 of AAV2-shFGF13 (6 μL, viral titers 1 × 10^12 vector genomes (vg)/mL); a control group received an equal number of AAV2-shCTRL particles (Figure 3C).
Experiments were performed on 6- to 12-week-old male C57BL/6 mice (The Jackson Laboratory, Bar Harbor, ME) housed in the AAALAC-accredited facility at the University of Texas Medical Branch. Mice were group-housed with up to 5 mice per cage on a 12-to-12-hour light–dark cycle and had access to water and food ad libitum. All protocols were approved by the Institutional Animal Care and Use Committee (IACUC) at the University of Texas Medical Branch and in accordance with the National Institutes of Health (NIH) guidelines.
PW164 and ZL192 were dissolved in DMSO and saline in a ratio of 1:10. 0.1% capsaicin (10% ethanol, 10% Tween-20 in saline; Sigma-Aldrich). All the compounds were injected at the center of the hind paw. The control group received a DMSO-saline mixture. […]
Bupivacaine was prepared from a 1:2 dilution with sterile 0.9% saline and locally injected in the center of the paw at 7 mg/ml.
AAV2 viral particles packaged by the University of North Carolina Gene Therapy Core Facility (viral titer ranging […]
Before intrathecal injections in the lumbar region, mice were maintained in an anesthetizing box with 2% isoflurane to induce unconsciousness. Six microliters of viral vector were gently injected into the CSF through a 30-gauge needle with a Hamilton syringe in the lumbar area between vertebrae L4 and L5 by gently gripping the iliac crest of the mouse and inserting the needle with an angle of 45°. The correct procedure was confirmed by the mouse’s tail reflexiv e flick.
Assessment of mechanical sensitivity
Mechanical sensitivity was assessed using von Frey filaments (VFF 0.1g and 1.0 g force) in mice that were either naïve or received intraplantar (i.p.) injection of capsaicin. VFFs were applied at the injection site (capsaicin or […]

[1] = Zl 0192 .06mg/ml 5ul site 2 i.d(after cap 0.5h ), Male GFP mouse site 1, hour 0
[2] = Zl 0192 .06mg/ml 5ul site 2 i.d(after cap 0.5h ), Male GFP mouse site 1, hour 0.5
[3] = Zl 0192 .06mg/ml 5ul site 2 i.d(after cap 0.5h ), Male GFP mouse site 1, hour 1
[4] = Zl 0192 .06mg/ml 5ul site 2 i.d(after cap 0.5h ), Male GFP mouse site 1, hour 1.5
[5] = Zl 0192 .06mg/ml 5ul site 2 i.d(after cap 0.5h ), Male GFP mouse site 1, hour 2
[6] = Zl 0192 .06mg/ml 5ul site 2 i.d(after cap 0.5h ), Male GFP mouse site 1, hour 3
[7] = Zl 0192 .06mg/ml 5ul site 2 i.d(after cap 0.5h ), Male GFP mouse site 2, hour 0
[8] = Zl 0192 .06mg/ml 5ul site 2 i.d(after cap 0.5h ), Male GFP mouse site 2, hour 0.5
[9] = Zl 0192 .06mg/ml 5ul site 2 i.d(after cap 0.5h ), Male GFP mouse site 2, hour 1
[10] = Zl 0192 .06mg/ml 5ul site 2 i.d(after cap 0.5h ), Male GFP mouse site 2, hour 1.5
[11] = Zl 0192 .06mg/ml 5ul site 2 i.d(after cap 0.5h ), Male GFP mouse site 2, hour 2
[12] = Zl 0192 .06mg/ml 5ul site 2 i.d(after cap 0.5h ), Male GFP mouse site 2, hour 3
[13] = Zl 0192 .06mg/ml 5ul site 2 i.d., Male GFP mouse site 1, hour 0
[14] = Zl 0192 .06mg/ml 5ul site 2 i.d., Male GFP mouse site 1, hour 0.5
[15] = Zl 0192 .06mg/ml 5ul site 2 i.d., Male GFP mouse site 1, hour 1
[16] = Zl 0192 .06mg/ml 5ul site 2 i.d., Male GFP mouse site 1, hour 1.5
[17] = Zl 0192 .06mg/ml 5ul site 2 i.d., Male GFP mouse site 1, hour 2
[18] = Zl 0192 .06mg/ml 5ul site 2 i.d., Male GFP mouse site 1, hour 3
[19] = Zl 0192 .06mg/ml 5ul site 2 i.d., Male GFP mouse site 2, hour 0
[20] = Zl 0192 .06mg/ml 5ul site 2 i.d., Male GFP mouse site 2, hour 0.5
[21] = Zl 0192 .06mg/ml 5ul site 2 i.d., Male GFP mouse site 2, hour 1
[22] = Zl 0192 .06mg/ml 5ul site 2 i.d., Male GFP mouse site 2, hour 1.5
[23] = Zl 0192 .06mg/ml 5ul site 2 i.d., Male GFP mouse site 2, hour 2
[24] = Zl 0192 .06mg/ml 5ul site 2 i.d., Male GFP mouse site 2, hour 3
[25] = Zl 0192 .18mg/ml 5ul site 2 i.d(after cap 0.5h ), Male GFP mouse site 1, hour 0
[26] = Zl 0192 .18mg/ml 5ul site 2 i.d(after cap 0.5h ), Male GFP mouse site 1, hour 0.5
[27] = Zl 0192 .18mg/ml 5ul site 2 i.d(after cap 0.5h ), Male GFP mouse site 1, hour 1
[28] = Zl 0192 .18mg/ml 5ul site 2 i.d(after cap 0.5h ), Male GFP mouse site 1, hour 1.5
[29] = Zl 0192 .18mg/ml 5ul site 2 i.d(after cap 0.5h ), Male GFP mouse site 1, hour 2
[30] = Zl 0192 .18mg/ml 5ul site 2 i.d(after cap 0.5h ), Male GFP mouse site 1, hour 3
[31] = Zl 0192 .18mg/ml 5ul site 2 i.d(after cap 0.5h ), Male GFP mouse site 2, hour 0
[32] = Zl 0192 .18mg/ml 5ul site 2 i.d(after cap 0.5h ), Male GFP mouse site 2, hour 0.5
[33] = Zl 0192 .18mg/ml 5ul site 2 i.d(after cap 0.5h ), Male GFP mouse site 2, hour 1
[34] = Zl 0192 .18mg/ml 5ul site 2 i.d(after cap 0.5h ), Male GFP mouse site 2, hour 1.5
[35] = Zl 0192 .18mg/ml 5ul site 2 i.d(after cap 0.5h ), Male GFP mouse site 2, hour 2
[36] = Zl 0192 .18mg/ml 5ul site 2 i.d(after cap 0.5h ), Male GFP mouse site 2, hour 3
[37] = Zl 0192 .18mg/ml 5ul site 2 i.d., Male GFP mouse site 1, hour 0
[38] = Zl 0192 .18mg/ml 5ul site 2 i.d., Male GFP mouse site 1, hour 0.5
[39] = Zl 0192 .18mg/ml 5ul site 2 i.d., Male GFP mouse site 1, hour 1
[40] = Zl 0192 .18mg/ml 5ul site 2 i.d., Male GFP mouse site 1, hour 1.5
[41] = Zl 0192 .18mg/ml 5ul site 2 i.d., Male GFP mouse site 1, hour 2
[42] = Zl 0192 .18mg/ml 5ul site 2 i.d., Male GFP mouse site 1, hour 3
[43] = Zl 0192 .18mg/ml 5ul site 2 i.d., Male GFP mouse site 2, hour 0
[44] = Zl 0192 .18mg/ml 5ul site 2 i.d., Male GFP mouse site 2, hour 0.5
[45] = Zl 0192 .18mg/ml 5ul site 2 i.d., Male GFP mouse site 2, hour 1
[46] = Zl 0192 .18mg/ml 5ul site 2 i.d., Male GFP mouse site 2, hour 1.5
[47] = Zl 0192 .18mg/ml 5ul site 2 i.d., Male GFP mouse site 2, hour 2
[48] = Zl 0192 .18mg/ml 5ul site 2 i.d., Male GFP mouse site 2, hour 3

CC(=O)N[C@@H](Cc1ccccc1)C(=O)N[C@@H](CC(C)C)C(=O)N1CCC[C@H]1C(=O)N[C@@H](CCCCN)C(=O)Nc1ccccc1 [Zl 0192] (Ac-FLPK-NHPh)
30 and 40: MECHANICAL LVF [12] | MECHANICAL LVF [23]
70 and 60: MECHANICAL LVF [11] | MECHANICAL LVF [26] | MECHANICAL LVF [27] | MECHANICAL LVF [35] | MECHANICAL LVF [41] | MECHANICAL LVF [45]
70: MECHANICAL LVF [2] | MECHANICAL LVF [3] | MECHANICAL LVF [21] | MECHANICAL LVF [36] | MECHANICAL LVF [40] | MECHANICAL LVF [47]
70 and 80: MECHANICAL LVF [15]
100: MECHANICAL HVF [2] | MECHANICAL HVF [3] | MECHANICAL HVF [4] | MECHANICAL HVF [5] | MECHANICAL HVF [6] | MECHANICAL HVF [8] | MECHANICAL HVF [9] | MECHANICAL HVF [10] | MECHANICAL HVF [11] | MECHANICAL HVF [12] | MECHANICAL HVF [14] | MECHANICAL HVF [15] | MECHANICAL HVF [16] | MECHANICAL HVF [20] | MECHANICAL HVF [21] | MECHANICAL HVF [26] | MECHANICAL HVF [27] | MECHANICAL HVF [28] | MECHANICAL HVF [29] | MECHANICAL HVF [30] | MECHANICAL HVF [32] | MECHANICAL HVF [33] | MECHANICAL HVF [34] | MECHANICAL HVF [35] | MECHANICAL HVF [36] | MECHANICAL HVF [38] | MECHANICAL HVF [39] | MECHANICAL HVF [40] | MECHANICAL HVF [41] | MECHANICAL HVF [42] | MECHANICAL HVF [44] | MECHANICAL HVF [45] | MECHANICAL HVF [46] | MECHANICAL HVF [47] | MECHANICAL HVF [48]
80: MECHANICAL LVF [4] | MECHANICAL HVF [18] | MECHANICAL LVF [39]
50: MECHANICAL HVF [1] | MECHANICAL HVF [7] | MECHANICAL HVF [13] | MECHANICAL LVF [17] | MECHANICAL HVF [19] | MECHANICAL HVF [31] | MECHANICAL HVF [37] | MECHANICAL HVF [43] | MECHANICAL LVF [48]
40 and 70: MECHANICAL LVF [14]
40 and 60: MECHANICAL LVF [20]
50 and 60: MECHANICAL LVF [8]
60 and 50: MECHANICAL LVF [22] | MECHANICAL HVF [25] | MECHANICAL LVF [44]
0: MECHANICAL LVF [1] | MECHANICAL LVF [7] | MECHANICAL LVF [13] | MECHANICAL LVF [19] | MECHANICAL LVF [25] | MECHANICAL LVF [31] | MECHANICAL LVF [37] | MECHANICAL LVF [43]
20 and 30: MECHANICAL LVF [18]
20 and 10: MECHANICAL LVF [24]
60 and 70: MECHANICAL LVF [10] | MECHANICAL LVF [32] | MECHANICAL LVF [34]
80 and 50: MECHANICAL HVF [24]
80 and 70: MECHANICAL LVF [5] | MECHANICAL LVF [6] | MECHANICAL LVF [16] | MECHANICAL HVF [23]
80 and 90: MECHANICAL HVF [17] | MECHANICAL LVF [28] | MECHANICAL LVF [29]
90 and 70: MECHANICAL HVF [22]
40 and 50: MECHANICAL LVF [38]
60: MECHANICAL LVF [9] | MECHANICAL LVF [33] | MECHANICAL LVF [42] | MECHANICAL LVF [46]
90 and 80: MECHANICAL LVF [30]
